Among the test systems are BT-549 breast; MCF7 breast; MDA-MB-435; PC-3 prostate; T-47D breast; MDA-MB-231 breast.
Common to all, as to test: NCI anticancer screen, dose series, 48 h

Our source for the TGI and GI50 values is PubChem BioAssay (NCI).

Structures are written as SMILES. Values joined by “and” are separate entries in the source; they are usually repeats but may differ in a detail not shown here. Equal values may be shown once.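 All cell lines were grown in 96-well plates and treated with compound for 48 hours. The concentration for 50% growth inhibition is given as GI50. The concentration for full growth arrest is given as TGI.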

Take `COC(=O)[C@@H](C)C[C@H](Cc1ccccc1)NC(=O)c1csc([C@@H](C[C@H](C(C)C)N(C)C(=O)[C@@H](NC(=O)[C@H]2CCCCN2C)c2ccc(F)cc2)OC(C)=O)n1`: the TGI in the assay with BT-549 breast is 0.0853 µM and 0.661 µM; in the assay on MCF7 breast, 25 µM and > 100 µM; in the assay on MDA-MB-435, 0.00514 µM and 0.0274 µM; in the assay with PC-3 prostate, 25 µM and 28.3 µM. For the same compound, the GI50 in the assay with MCF7 breast was 0.00229 µM and 0.0025 µM; in the assay on MDA-MB-435, 0.00081 µM; in the assay on T-47D breast it was 0.00826 µM.

As for `CN1CCN(c2ccncc2S(=O)(=O)N2CCN(C)CC2)CC1`, the TGI in the assay on BT-549 breast, with MCF7 breast, in the assay on MDA-MB-231 breast, with MDA-MB-435, with PC-3 prostate and in the assay with T-47D breast was greater than 100 µM in each case.

As to `O=C(Nc1ccc(Cl)cc1)c1cc(NCc2cc(O)ccc2O)ccc1O`, the GI50 in the assay with BT-549 breast was 1.42 µM; in the assay on MCF7 breast, 3.87 µM; in the assay on MDA-MB-231 breast it was 3.49 µM; in the assay with MDA-MB-435, 12 µM; with PC-3 prostate it was 1.89 µM; in the assay on T-47D breast it was 2.05 µM. Further, the TGI in the assay with BT-549 breast turned out to be 3.57 µM; in the assay with MCF7 breast, 25.5 µM; in the assay on MDA-MB-231 breast it was 13.6 µM; in the assay on MDA-MB-435 it was 27.2 µM; with PC-3 prostate it was 4.92 µM; in the assay on T-47D breast, 5.24 µM.

Consider `Cc1cc2[nH]c(=O)c3c4ncccc4cn3c2cc1C`, for which the GI50 in the assay on BT-549 breast is 14.5 µM; in the assay with MDA-MB-231 breast, 4.64 µM; with PC-3 prostate, 5.83 µM; in the assay with T-47D breast, 2.37 µM. Besides, the TGI was 41.4 µM in the assay on BT-549 breast, greater than 100 µM in the assay with MDA-MB-231 breast, greater than 100 µM with PC-3 prostate and greater than 100 µM in the assay with T-47D breast.

Consider `CO[C@H]1/C=C/O[C@@]2(C)Oc3c(C)c(O)c4c(O)c(c(/C=N/N5C(C)CN(Cc6ccc(C#N)cc6)CC5C)c(O)c4c3C2=O)NC(=O)/C(C)=C\C=C\[C@H](C)[C@H](O)[C@@H](C)[C@@H](O)[C@@H](C)[C@H](OC(C)=O)[C@@H]1C` (stereo not given in full), for which the GI50 is 8.85 µM in the assay on BT-549 breast; 6.37 µM in the assay with MCF7 breast; 7.49 µM in the assay with MDA-MB-231 breast; 8.58 µM in the assay on MDA-MB-435; 6.71 µM with T-47D breast. Further, the TGI with BT-549 breast stood at 23.5 µM; in the assay with MCF7 breast, 24.3 µM; in the assay with MDA-MB-231 breast, 14.9 µM; with MDA-MB-435, 23.5 µM; with T-47D breast, 26.2 µM.

As for `C=C(C)[C@@H]1C/C=C(/COC(C)=O)CC[C@H]2O[C@@]2(C)CC/C=C(\C)CC1`, the GI50 is 81 µM in the assay on MCF7 breast, greater than 100 µM in the assay with MDA-MB-435, greater than 100 µM in the assay with PC-3 prostate and greater than 100 µM with T-47D breast. For the same compound, the TGI in the assay on MCF7 breast, with MDA-MB-435, in the assay on PC-3 prostate and in the assay with T-47D breast was greater than 100 µM throughout.

In the case of `O=C1/C(=C/c2ccc(Cl)cc2)N=C(c2ccccc2)N1c1cc(C(F)(F)F)ccc1Cl`, the GI50 was 17.6 µM in the assay with MCF7 breast; 16 µM with MDA-MB-231 breast; 22.7 µM with MDA-MB-435; 20.8 µM with PC-3 prostate; 22.4 µM in the assay on T-47D breast. Also, the TGI is 57.9 µM in the assay on MCF7 breast; 55.8 µM in the assay with MDA-MB-231 breast; 71.4 µM in the assay on MDA-MB-435; 71.8 µM in the assay with PC-3 prostate; greater than 100 µM in the assay on T-47D breast.

Turning to `CC(C)(C)c1cc[n+](C[n+]2ccc(C(C)(C)C)cc2)cc1`, the TGI with MCF7 breast, in the assay with MDA-MB-231 breast, in the assay on MDA-MB-435, in the assay on PC-3 prostate and in the assay with T-47D breast was greater than 100 µM throughout.

Turning to `COc1cc(/C=C/C(=O)c2ccccc2O)ccc1OCCCOc1cc2c(cc1OC)C(=O)N1CCC[C@H]1C=N2`, the GI50 in the assay on BT-549 breast is 0.0179 µM; in the assay on MCF7 breast, 0.0426 µM; in the assay with MDA-MB-231 breast it was 0.0564 µM; in the assay with PC-3 prostate it was 0.0541 µM; in the assay on T-47D breast, 0.152 µM. Also, the TGI in the assay with BT-549 breast was 0.0476 µM; in the assay on MCF7 breast, greater than 36.9 µM; in the assay on MDA-MB-231 breast, 0.335 µM; in the assay with PC-3 prostate, 7.51 µM.

On to `O=C(N/N=C/c1ccc([N+](=O)[O-])cc1)c1ccccc1Nc1ccnc(C(F)(F)F)c1`, for which the GI50 with MCF7 breast was 19.9 µM; in the assay on MDA-MB-231 breast, 21.7 µM; with MDA-MB-435, 14.7 µM; with PC-3 prostate, 12.9 µM; in the assay with T-47D breast, 21.6 µM. Moreover, the TGI in the assay with MCF7 breast is 45.6 µM; with MDA-MB-231 breast, 77.1 µM; in the assay on MDA-MB-435 it was 35.1 µM; in the assay on PC-3 prostate, 29.7 µM; in the assay on T-47D breast it was 82.4 µM.

For the compound `COc1ccc(OC)c(-c2cc(-c3ccc(Cl)cc3)nn2-c2ccccc2)c1`, the GI50 with BT-549 breast was 28.8 µM; with MCF7 breast, 6.89 µM; with MDA-MB-231 breast it was 17.8 µM; with MDA-MB-435 it was 18.3 µM; in the assay on PC-3 prostate, 24.2 µM. In addition, the TGI is 84.4 µM with BT-549 breast; greater than 100 µM in the assay on MCF7 breast; 80 µM in the assay on MDA-MB-231 breast; 46.1 µM with MDA-MB-435; greater than 100 µM in the assay with PC-3 prostate.
